Patent publication US8518892B2, “Methods to treat symptoms of pathophysiology related to body mass” (Board of Supervisors of Louisiana State University and …, priority 2005, dated 2013)

What was measured:
[1] = system: phosphorylation of Erk1 in HepG2 cells; test: Erk phosphorylation in HepG2 cells; type: cell-based; conditions: 1 μg/ml Enho1^34-76, 15 minutes after application
Procedure: FIG. 11B illustrates the increase in Erk phosphorylation in HepG2 hepatocytes 15 minutes after the application of the secreted protein Enho1 (Enho1^34-76; SEQ ID NO:10).
(§1) An experiment was conducted to test the use of a recombinant or synthetic forms of the short secreted polypeptide Enho1^34-76 (SEQ ID NO:10). A study was conducted where the response of adipocytes and hepatocytes, two potential sites of Enho1 action, to synthetic Enho1^34-76 was analyzed with changes in extracellular regulated kinase (ERK) as the measured response. ERK1/2 and p38α are important in the regulation of lipolysis and thermogenesis in adipocytes.
(§2) In addition, a shorter, second peptide was synthesized using amino acids 39 through 76 of SEQ ID NO:2, and called “Enho1^39-76” (SEQ ID NO:11).

[2] = system: phosphorylation of Erk1 in fully differentiated 3T3-L1 adipocytes; test: Erk phosphorylation in 3T3-L1 adipocytes; type: cell-based; conditions: 1 μg/ml Enho1^34-76, 15 minutes after application
Procedure: FIG. 11A illustrates the increase in Erk phosphorylation in 3T3-L1 adipocytes 15 minutes after the application of the secreted portion of protein Enho1 (Enho1^34-76; SEQ ID NO:10).
as §1, §2

[3] = system: Lep^ob/Lep^ob mice; test: Leptin treatment of Lep^ob/Lep^ob mice, hepatic AK009710 (Enho1) mRNA by RealTime PCR; type: in vivo, mouse; conditions: liver of Lep^ob/Lep^ob mice, 4 injections of 0.5 mg/g leptin over 2 days, vs saline
Procedure: FIG. 3C illustrates the amount of hepatic AK009710 mRNA expression (given as a percent of expression with saline) in leptin-deficient Lep^ob/Lep^ob mice injected 4 times over 2 days with either saline or leptin (0.5 mg/g).
Quantitative RealTime PCR confirmed the microarray data showing a tendency for a modest reduction in the expression of AK009710 in liver of Mc3rKO (FIG. 3A). […] (FIG. 3C). […] Moreover, AK009710 expression correlated negatively with fasting glucose in diet-induced obese B6 mice (n=13, R^2=0.67, P<0.001) (data not shown).
Oligonucleotide primers targeted to AK009710 mRNA were utilized to measure AK009710 gene expression in liver cDNA from various mouse models of obesity and insulin resistance. Sequences of primers were: sense 5-[…]-3′ (SEQ ID NO:3), antisense 5′-[…]-3′ (SEQ ID NO:4), probe 5′-6FAM-[…]-BHQ-3′ (SEQ ID NO:5). In agreement with the initial microarray result, AK009710 mRNA was down regulated in the liver of Mc3r−/− mice compared to WT mice (by 55%, p<0.05; FIG. 3A). Next was examined the AK009710 liver mRNA expression in two other models of obesity: Mc4r−/− mice and leptin-deficient Lep^ob/Lep^ob mice. AK009710 mRNA was expressed at approximately 10-fold lower levels in both of these models compared to wild-type mice (WT) (FIG. 3B). […]

Molecule	phosphorylation of Erk1 [1]	phosphorylation of Erk1 [2]	hepatic Enho1 (AK009710) mRNA expression [3]
Enho1^34-76: synthetic peptide corresponding to amino acids 34 through 76 of SEQ ID NO:2, the mouse protein; secreted portion of Enho1 (CHSRSADVDSLSESSPNSSPGPCPEKAPPPQKPSHEGSYLLQP; mus sp.)	robust increase	robust increase	
leptin (protein, UniProt P41160 22-167, looked up, adipocytokine, injected into Lep^ob/Lep^ob mice) Leptin: VPIQKVQDDTKTLIKTIVTRINDISHTQSVSAKQRVTGLDFIPGLHPILSLSKMDQTLAVYQQVLTSLPSQNVLQIANDLENLRDLLHLLAFSKSCSLPQTSGLQKPESLDGVLEASLYSTEVVALSRLQGSLQDILQQLDVSPEC			significantly increased
